The test system of this assay is Neisseria gonorrhoeae. Description: EC50 determination: plate-based broth growth assay (absorbance at 600 nm) of Neisseria gonorrhoeae. The class given is cell-based. The settings on record: absorbance 600 nm after 20 hours at 37° C./5% CO2, read-out: IC50 (Inhibitory concentration) against Neisseria gonorrhoeae. The method, then:
Actively growing Neisseria gonorrhoeae on GC agar (based on; Spence et. al. (2008): Curr. Protoc. Microbiol. 8:4A.1.1-4A.1.26) plates are harvested and transferred to GC broth (based on; Spence et al (2008): Curr. Protoc. Microbiol. 8:4A.1.1-4A.1.26) to generate a liquid stock. This culture is allowed to establish and grow to mid-log phase (at 37° C./5% CO2), finally this culture is diluted (˜10^5 cells/ml) to generate a seed inoculum to establish plate-based broth assays. EC50 values were determined by assaying growth (absorbance read at 600 nm, after 20 hours at 37° C./5% CO2) of Neisseria gonorrhoeae across a 10-point dilution series of the test compound. The EC50 value is determined from transformed data to identify the concentration of compound giving a 50% response relative to control samples (no compound).

The text below walks through data of patent US20190194179A1, “ANTIBIOTIC COMPOUNDS” (DISCUVA LTD., priority 2016, published 2019).

Regarding `O=C(NC1CC1)c1csc(Nc2nc3cc(C(F)(F)F)ccc3o2)n1` [Example 1, N-Cyclopropyl-2-((5-(trifluoromethyl)benzo[d]oxazol-2-yl)amino)thiazole-4-carboxamide], the IC50 is ≤ 1 µM.
With `CNC(=O)c1csc(Nc2nc3cc(C(F)(F)F)ccc3o2)n1` [Example 2, N-Methyl-2-((5-(trifluoromethyl)benzo[d]oxazol-2-yl)amino)thiazole-4-carboxamide], the IC50 is ≤ 1 µM.
Then `CCNC(=O)c1csc(Nc2nc3cc(C(F)(F)F)ccc3o2)n1` [Example 3, N-Ethyl-2-((5-(trifluoromethyl)benzo[d]oxazol-2-yl)amino)thiazole-4-carboxamide], with ≤ 1 µM; and `CC(C)NC(=O)c1csc(Nc2nc3cc(C(F)(F)F)ccc3o2)n1` [Example 4, N-Isopropyl-2-((5-(trifluoromethyl)benzo[d]oxazol-2-yl)amino)thiazole-4-carboxamide], with ≤ 1 µM; and `O=C(Nc1ccccc1)c1csc(Nc2nc3cc(C(F)(F)F)ccc3o2)n1` [Example 5, N-Phenyl-2-((5-(trifluoromethyl)benzo[d]oxazol-2-yl)amino)thiazole-4-carboxamide], with ≤ 1 µM.
In the case of `FC(F)(F)c1ccc2oc(Nc3nccs3)nc2c1` [Example 6, N-(Thiazol-2-yl)-5-(trifluoromethyl)benzo[d]oxazol-2-amine], the IC50 is ≤ 1 µM.
Regarding `Cc1csc(Nc2nc3cc(C(F)(F)F)ccc3o2)n1` [Example 7, N-(4-Methylthiazol-2-yl)-5-(trifluoromethyl)benzo[d]oxazol-2-amine], the IC50 is ≤ 1 µM.
On to `CCOC(=O)c1csc(Nc2nc3cc(C(F)(F)F)ccc3o2)n1` [Example 8, Ethyl 2-((5-(trifluoromethyl)benzo[d]oxazol-2-yl)amino)thiazole-4-carboxylate], for which the IC50 was ≤ 1 µM.
With `O=C(Nc1cccc(F)c1)c1csc(Nc2nc3cc(C(F)(F)F)ccc3o2)n1` [Example 9, N-(3-Fluorophenyl)-2-((5-(trifluoromethyl)benzo[d]oxazol-2-yl)amino)thiazole-4-carboxamide] the figure was ≤ 1 µM; with `O=C(Nc1cccc(Cl)c1)c1csc(Nc2nc3cc(C(F)(F)F)ccc3o2)n1` [Example 10, N-(3-Chlorophenyl)-2-((5-(trifluoromethyl)benzo[d]oxazol-2-yl)amino)thiazole-4-carboxamide], ≤ 1 µM.
For the compound `FC(F)(F)c1ccc2oc(Nc3ccon3)nc2c1` [Example 11, N-(Isoxazol-3-yl)-5-(trifluoromethyl)benzo[d]oxazol-2-amine], the IC50 is ≤ 1 µM.
Regarding `Cn1cc(Nc2nc3cc(C(F)(F)F)ccc3o2)nn1` [Example 12, N-(1-Methyl-1H-1,2,3-triazol-4-yl)-5-(trifluoromethyl)benzo[d]oxazol-2-amine], the IC50 is ≤ 10 µM.
Take `CC(C)(C)c1csc(Nc2nc3cc(C(F)(F)F)ccc3o2)n1` [Example 13, N-(4-(tert-butyl)thiazol-2-yl)-5-(trifluoromethyl)benzo[d]oxazol-2-amine]: the IC50 is ≤ 10 µM.
On to `FC(F)(F)c1ccc2oc(Nc3nncs3)nc2c1` [Example 14, N-(1,3,4-Thiadiazol-2-yl)-5-(trifluoromethyl)benzo[d]oxazol-2-amine], for which the IC50 is ≤ 1 µM.
Consider `O=C(NC1CC1)c1csc(Nc2nc3ccccc3o2)n1` [Example 15, 2-(Benzo[d]oxazol-2-ylamino)-N-cyclopropylthiazole-4-carboxamide], for which the IC50 is ≤ 1 µM.
Then `Cc1ccc2oc(Nc3nc(C(=O)NC4CC4)cs3)nc2c1` [Example 16, N-Cyclopropyl-2-((5-methylbenzo[d]oxazol-2-yl)amino)thiazole-4-carboxamide], with ≤ 1 µM; and `O=C(NC1CC1)c1csc(Nc2nc3cc(Cl)ccc3o2)n1` [Example 17, 2-((5-Chlorobenzo[d]oxazol-2-yl)amino)-N-cyclopropylthiazole-4-carboxamide], with ≤ 1 µM; and `O=C(NC1CC1)c1csc(Nc2nc3cc(F)ccc3o2)n1` [Example 18, N-Cyclopropyl-2-((5-fluorobenzo[d]oxazol-2-yl)amino)thiazole-4-carboxamide], with ≤ 1 µM.
As for `O=C(NC1CC1)c1csc(Nc2nc3ccc(F)cc3o2)n1` [Example 19, N-Cyclopropyl-2-((6-fluorobenzo[d]oxazol-2-yl)amino)thiazole-4-carboxamide], the IC50 was ≤ 1 µM.
Take `O=C(NC1CC1)c1csc(Nc2nc3ccc(Cl)cc3o2)n1` [Example 20, 2-((6-Chlorobenzo[d]oxazol-2-yl)amino)-N-cyclopropylthiazole-4-carboxamide]: the IC50 is ≤ 0.1 µM.
Turning to `NC(=O)c1csc(Nc2nc3cc(C(F)(F)F)ccc3o2)n1` [Example 21, 2-((5-(Trifluoromethyl)benzo[d]oxazol-2-yl)amino)thiazole-4-carboxamide], the IC50 is ≤ 1 µM.
As to `Cc1nnc(Nc2nc3cc(C(F)(F)F)ccc3o2)o1` [Example 22, N-(5-Methyl-1,3,4-oxadiazol-2-yl)-5-(trifluoromethyl)benzo[d]oxazol-2-amine], the IC50 is ≤ 1 µM.
For `FC(F)(F)c1ccc2oc(Nc3ncns3)nc2c1` [Example 23, N-(1,2,4-Thiadiazol-5-yl)-5-(trifluoromethyl)benzo[d]oxazol-2-amine], the IC50 is ≤ 1 µM.
Consider `O=C(NC1CC1)c1coc(Nc2nc3cc(C(F)(F)F)ccc3o2)n1` [Example 24, N-Cyclopropyl-2-((5-(trifluoromethyl)benzo[d]oxazol-2-yl)amino)oxazole-4-carboxamide], for which the IC50 was ≤ 1 µM.
For `Cc1sc(Nc2nc3cc(C(F)(F)F)ccc3o2)nc1C(=O)NC1CC1` [Example 25, N-Cyclopropyl-5-methyl-2-((5-(trifluoromethyl)benzo[d]oxazol-2-yl)amino)thiazole-4-carboxamide], the IC50 was ≤ 1 µM.
With `O=C(NC1CC1)c1csc(Nc2nc3ccc(C(F)(F)F)cc3o2)n1` [Example 26, N-Cyclopropyl-2-((6-(trifluoromethyl)benzo[d]oxazol-2-yl)amino)thiazole-4-carboxamide], the IC50 is ≤ 0.1 µM.
Turning to `FC(F)(F)c1ccc2nc(Nc3ncc(N4CCOCC4)s3)oc2c1` [Example 27, N-(5-Morpholinothiazol-2-yl)-6-(trifluoromethyl)benzo[d]oxazol-2-amine], the IC50 is ≤ 1 µM.
Take `FC(F)(F)c1ccc2nc(Nc3ncc(N4CCCCC4)s3)oc2c1` [Example 28, N-(5-(Piperidin-1-yl)thiazol-2-yl)-6-(trifluoromethyl)benzo[d]oxazol-2-amine]: the IC50 was ≤ 1 µM.
For `O=C(NC1CC1)c1nnc(Nc2nc3ccc(C(F)(F)F)cc3o2)o1` [Example 30, N-Cyclopropyl-5-((6-(trifluoromethyl)benzo[d]oxazol-2-yl)amino)-1,3,4-oxadiazol-2-carboxamide], the IC50 is ≤ 100 µM.
Consider `Cc1noc(Nc2nc3cc(C(F)(F)F)ccc3o2)n1` [Example 31, N-(3-Methyl-1,2,4-oxadiazol-5-yl)-5-(trifluoromethyl)benzo[d]oxazol-2-amine], for which the IC50 was ≤ 1 µM.
For the compound `CN1CCN(c2cnc(Nc3nc4cc(C(F)(F)F)ccc4o3)s2)CC1` [Example 32, N-(5-(4-Methylpiperazin-1-yl)thiazol-2-yl)-5-(trifluoromethyl)benzo[d]oxazol-2-amine], the IC50 is ≤ 1 µM.
`NC(=O)c1csc(Nc2nc3ccc(Cl)cc3o2)n1` [Example 33, 2-((6-Chlorobenzo[d]oxazol-2-yl)amino)thiazole-4-carboxamide]: the IC50 is ≤ 1 µM.
As for `NC(=O)c1csc(Nc2nc3cc(C(F)(F)F)c(Cl)cc3o2)n1` [Example 34, 2-((6-Chloro-5-(trifluoromethyl)benzo[d]oxazol-2-yl)amino)thiazole-4-carboxamide], the IC50 was ≤ 1 µM.
Regarding `CN1CCN(c2cnc(Nc3nc4ccc(C(F)(F)F)cc4o3)s2)CC1` [Example 35, N-(5-(4-Methylpiperazin-1-yl)thiazol-2-yl)-6-(trifluoromethyl)benzo[d]oxazol-2-amine], the IC50 is ≤ 1 µM.
With `NC(=O)c1csc(Nc2nc3cccc(Cl)c3o2)n1` [Example 36, 2-((7-Chlorobenzo[d]oxazol-2-yl)amino)thiazole-4-carboxamide] the figure was ≤ 1 µM; with `O=C(NC1CC1)c1cnc(Nc2nc3cc(C(F)(F)F)ccc3o2)s1` [Example 37, N-Cyclopropyl-2-((5-(trifluoromethyl)benzo[d]oxazol-2-yl)amino)thiazole-5-carboxamide], ≤ 10 µM.
In the case of `Cn1ccc(Nc2nc3cc(C(F)(F)F)ccc3o2)n1` [Example 38, N-(1-Methyl-1H-pyrazol-3-yl)-5-(trifluoromethyl)benzo[d]oxazol-2-amine], the IC50 was ≤ 10 µM.
With `Cc1nnc(Nc2nc3cccc(Cl)c3o2)o1` [Example 39, 7-Chloro-N-(5-methyl-1,3,4-oxadiazol-2-yl)benzo[d]oxazol-2-amine] the figure was ≤ 1 µM; with `Cc1nnc(Nc2nc3c(Cl)cc(Cl)cc3o2)o1` [Example 40, 4,6-Dichloro-N-(5-methyl-1,3,4-oxadiazol-2-yl)benzo[d]oxazol-2-amine], ≤ 0.1 µM; with `Cn1cnnc1Nc1nc2cc(C(F)(F)F)ccc2o1` [Example 41, N-(4-methyl-4H-1,2,4-triazol-3-yl)-5-(trifluoromethyl)benzo[d]oxazol-2-amine], ≤ 1 µM.
For `Cc1cc(Nc2nc3cc(C(F)(F)F)c(Cl)cc3o2)no1` [Example 42, 6-Chloro-N-(5-methylisoxazol-3-yl)-5-(trifluoromethyl)benzo[d]oxazol-2-amine], the IC50 was ≤ 0.1 µM.
